From patent US6197774A, “Pyrimidine derivative” (Otsuka Pharmaceutical Co., Ltd., priority 1997, dated 2001) come the findings set out here.

Type in all cases: cell-based
A short description of data set [1]: Toxicity of compound against the cell strain RAW 264.7 (MTT). To be noted: mouse, raw 264.7 cells, 1 × 10^-6 M, read-out: Ratio of optical absorbance. Here is the method: [Toxicity test (Toxicity of compound against the cell strain RAW 264.7)]
Test was conducted in accordance with the method as described in J. Immunol. Methods, Vol. 94, pp. 57-68, (1986). Cell strain RAW 264.7 derived from the macrophage of mouse was incubated similarly as in the method of Test Example 1(1). After that, MTT reagent (5 mg/ml) in 1/10 amount of the culture medium was added to the cells, and incubated for 4 hours. The supernatant of culture medium was taken off, then the cells were collected by using 1% SDS solution and the optical absorbance at 570-630 nm of the SDS solution was measured.

Data set [2] relates to formation of IL-8 in cell strain A 549. The data set can be described thus: Activity for inhibiting the formation of IL-8 in vitro (A 549 cells, ELISA). Conditions: Homo sapiens, A549, control 100.0, 24 hours, read-out: Ratio of formed amount of IL-8. The method, then: [Evaluation test of activity for inhibiting the formation of IL-8 in vitro]
Pyrimidine derivative obtained in Example 1 was used as test comppound.
Cell strain A 549 (ATCC) derived from human alveolar epithelium cells was placed on each one of the wells on a microplate having 24-wells so as to put the cells in an amount of 3×10^5 cells/U (well). The cells were incubated for 24 hours in F-12 Nutrient Mixture culture medium (mfd. by GIBCO) to which 10% of equine serum, 100 U/ml of penicillin (mfd. by Dainippon Pharmaceutical Co., Ltd.) and 100 μg/ml of streptomycin (mfd. by Dainippon Pharmaceutical Co., Ltd.) were added.
Next, the equine serum was removed from the culture medium, and the reference culture medium as control was prepared by adding inducers of TNF-α (mfd. by genzyme), IL-1β (mfd. by genzyme) and IFN-γ (mfd. by genzyme) to the culture medium, so as to induce the formation of IL-8.
On the other hand, the test culture medium, containing the test compound of Example 1 was prepared similarly as in the reference culture medium, except adding the test compound (1×10^-5, 1×10^-6 and 1×10^-7 M) dissolved in dimethyl sulfoxide (DMSO) at the same time of inducers-addition.
The concentration of IL-8 formed in the supernatant of each one of the culture media after 24-hour incubation was measured by IL-8 ELISA Kit Human (mfd. by genzyme). Further, MTT assay was conducted by the similar method as described in Text Example 2 to determine the index of toxicity for cells.

Data set [3] relates to formation of NO in cell strain RAW 264.7. The data set can be described thus: Activity for inhibiting the formation of NO (LPS-stimulated RAW 264.7 cells, Griess reagent). To be noted: Mus musculus, RAW264.7, 1 × 10^-6 M, LPS 100 ng/ml, 24 hours, read-out: Ratio of formed amount of NO (reference culture medium = 100). Here is the method: [Evaluation test of activity for inhibiting the formation of NO]
Pharmacological tests of pyrimidine derivatives obtained in Examples 1, 12, 14, 19, 22, 24, 29 and 42 used as test compounds were conducted as follows.
Preparation of culture media and method of cell culture were conducted in accordance with those described in J. Biol. Chem., Vol. 269, No. 1, pp. 711-715, (1994), and determination of formed amount of NO was conducted in accordance with the method described in Anal. Biochem., Vol. 126, pp. 131-138, (1982), respectively.
(1) Cell Culture and Inducible Synthesis of NO in the Cells by Stimulation with Lipopolysaccharide (LPS)
Cell strain RAW 264.7 (ATCC) derived from the macrophage of mouse was placed on each one of the wells on a microplate having 24-wells so as to put the cells in an amount of 1×10^5 cells/U (well). The cells were incubated for 24 hours in a phenol red free-RPMI-1640 culture medium (mfd. by GIBCO) to which 10% of fetal bovine serum, 100 U/ml of penicillin (mfd. by Dainippon Pharmaceutical Co., Ltd.) and 100 μg/ml of streptomycin (mfd. by Dainippon Pharmaceutical Co., Ltd.) were added.
Next, the reference culture medium was prepared by adding 2 mM of L-arginine (mfd. by Wako Pure Chemical Industries, Ltd.), 10 μM/ml of tetrahydrobiopterin (mfd. by ALEXIS) and 100 ng/ml of lipopolysaccharide (LPS)(mfd. by Sigma Chemical Co.) to a phenol red free-RPMI-1640 culture medium. While, the reference culture medium without containing LPS was used as the blanc culture medium.
On the other hand, the test culture medium, containing the test compound was prepared by adding 0.2% of the test compounds dissolved in dimethyl sulfoxide (DMSO) to the reference culture medium to adjust the final concentration of the test compound to 1×10^-6 M.
Each one of the blank culture medium, reference culture medium and test culture medium containing the test compound was added, respectively to the well on the micro-plate where the above-mentioned cell strain RAW 264.7 was placed, and was incubated for 24 hours.
(2) Measurement of the Amount of Formed NO
Quantitative measurement of NO cannot be made directly, due to its unstability. Therefore, the amount of NO is measured indirectly, thus by forming nitrous acid ion (hereunder referred to as NO2^-) which is stable product derived from NO by use of Griess reagent [consisting of 1% of sulfanylamide and 0.1% of sulfuric acid solution containing 0.1% N-(1-naphthyl)ethylenediamine dihydrochloride], and measure the amount of NO2^-.
Into the supernatant of each one of the culture media was admixed with the same amount of Griess reagent respectively, and subjected to reaction at room temperature for 10 minutes, then the optical absorbance at 540 nm of the thus reacted culture medium was measured. While, the optical absorbance of sodium nitrite solution diluted with the culture medium was referred to as the standard value, and the amount of NO2^- formed in each one of these incubated culture media was measured. The amounts of NO2^- formed in the reference culture medium and the test culture medium were corrected by using the value of formed amount of NO2^- in the blanc culture medium.
On the basis of that the ratio of amounts of NO2^- formed in the reference culture medium and that of formed in the test culture medium is corresponding to the ratio of amount of NO formed in the reference culture medium and that of formed in the test culture medium. Thus the amount of NO2^- formed in the reference culture medium is referred to as the value of 100, and the value of amount of NO2^- formed in the test culture medium is referred to as amount of NO formed in the test culture medium.
In general terms: Griess reagent forms a coloured azo dye with nitrite.

In the case of `COCc1cc(=O)n2ncc(-c3ccc(Sc4ccccc4)cc3)c2[nH]1` [Example 1, 4,7-dihydro-5-methoxymethyl-7-oxo-3-(4-phenylthiophenyl)pyrazolo[1,5-a]pyrimidine], the viability at 1 µM in data set [1] was 109%. Moreover, the activity at 10 µM in data set [2] (1 × 10^-5 M) came out at 13.4%. In addition, the activity at 1 µM was found to be 52.6% in data set [2] (1 × 10^-6 M) and 56% in data set [3]. In addition, in data set [2] (1 × 10^-7 M), the activity at 0.1 µM was 64.5%.
